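Five concentrations, 48 hours, 96-well plates. TGI: total growth inhibition.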
What was measured:
Experiment in all cases: growth of human tumour cells (NCI), 48 h
[1] = test system: COLO 205 colon
[2] = test system: A498 renal
[3] = test system: KM20L2 colon
[4] = test system: SK-OV-3 ovarian
[5] = test system: 786-0 renal
[6] = test system: HCT-116 colon
[7] = test system: M14 melanoma
[8] = test system: HCC-2998 colon
[9] = test system: MALME-3M melanoma
[10] = test system: CCRF-CEM leukemia
[11] = test system: SF-268 CNS
[12] = test system: SNB-19 CNS
[13] = test system: DLD-1 colon
[14] = test system: SNB-78 CNS
[15] = test system: A549 NSCLC
[16] = test system: K-562 leukemia
[17] = test system: NCI-H23 lung
[18] = test system: IGROV1 ovarian
[19] = test system: MOLT-4 leukemia
[20] = test system: SF-295 CNS
[21] = test system: UACC-62 melanoma
[22] = test system: KM12 colon
[23] = test system: HL-60(TB) leukemia
[24] = test system: NCI-H522 lung
[25] = test system: OVCAR-3 ovarian
[26] = test system: SK-MEL-28 melanoma
[27] = test system: SK-MEL-2 melanoma
[28] = test system: HOP-18 NSCLC
[29] = test system: SW-620 colon
[30] = test system: SNB-75 CNS
[31] = test system: EKVX NSCLC
[32] = test system: SN12C renal
[33] = test system: HOP-62 NSCLC
[34] = test system: HCT-15 colon
[35] = test system: HT29 colon
[36] = test system: TK-10 renal
[37] = test system: NCI-H460 lung
[38] = test system: UACC-257 melanoma
[39] = test system: ACHN renal
[40] = test system: DMS 273 small cell lung
[41] = test system: DMS 114 small cell lung
[42] = test system: CAKI-1 renal
[43] = test system: U251 CNS
[44] = test system: OVCAR-4 ovarian
[45] = test system: XF 498 CNS
[46] = test system: OVCAR-8 ovarian
[47] = test system: SK-MEL-5 melanoma
[48] = test system: UO-31 renal
[49] = test system: LXFL 529 NSCLC
[50] = test system: M19-MEL melanoma
[51] = test system: RPMI-8226 leukemia
[52] = test system: SF-539 CNS
[53] = test system: RXF 393 renal
[54] = test system: OVCAR-5 ovarian
[55] = test system: LOX IMVI melanoma
[56] = test system: HOP-92 NSCLC

Work on `O=C1Nc2ccccc2C12CCCC2` yielded a TGI [1] greater than 100 µM, a TGI [2] greater than 100 µM and a TGI [3] greater than 100 µM. It also gave a TGI [4] greater than 100 µM, a TGI [5] greater than 100 µM and a TGI [6] greater than 100 µM. The TGI [7] was greater than 100 µM, the TGI [8] was greater than 100 µM and the TGI [9] was greater than 100 µM. For the same molecule, the TGI [10] was greater than 100 µM, the TGI [11] was greater than 100 µM and the TGI [12] was greater than 100 µM. For the same molecule, the TGI [13] was greater than 100 µM, the TGI [14] was greater than 100 µM and the TGI [15] was greater than 100 µM. The TGI [16] was greater than 100 µM, the TGI [17] was greater than 100 µM and the TGI [18] was greater than 100 µM. It also gave a TGI [19] greater than 100 µM, a TGI [20] greater than 100 µM and a TGI [21] greater than 100 µM. For the same molecule, the TGI [22] was greater than 100 µM, the TGI [23] was greater than 100 µM and the TGI [24] was greater than 100 µM. It also gave a TGI [25] greater than 100 µM, a TGI [26] greater than 100 µM and a TGI [27] greater than 100 µM. It also gave a TGI [28] greater than 100 µM, a TGI [29] greater than 100 µM and a TGI [30] greater than 100 µM. For the same molecule, the TGI [31] was greater than 100 µM, the TGI [32] was greater than 100 µM and the TGI [33] was greater than 100 µM. It also gave a TGI [34] greater than 100 µM, a TGI [35] greater than 100 µM and a TGI [36] greater than 100 µM. The TGI [37] was greater than 100 µM, the TGI [38] was greater than 100 µM and the TGI [39] was greater than 100 µM. It also gave a TGI [40] greater than 100 µM, a TGI [41] greater than 100 µM and a TGI [42] greater than 100 µM. It also gave a TGI [43] greater than 100 µM, a TGI [44] greater than 100 µM and a TGI [45] greater than 100 µM. It also gave a TGI [46] greater than 100 µM, a TGI [47] greater than 100 µM and a TGI [48] greater than 100 µM. It also gave a TGI [49] greater than 100 µM, a TGI [50] greater than 100 µM and a TGI [51] greater than 100 µM. It also gave a TGI [52] greater than 100 µM and a TGI [53] greater than 100 µM.
In the case of `Cc1cc(C)nc(NS(=O)(=O)c2ccc(NC(=O)c3cccc4c(Nc5ccc(S(=O)(=O)Nc6nc(C)cc(C)n6)cc5)c5ccc(Cl)cc5nc34)cc2)n1`, the TGI [1] was greater than 100 µM, the TGI [2] was greater than 100 µM and the TGI [3] was greater than 100 µM. The TGI [4] was 77.1 µM, the TGI [5] was greater than 100 µM and the TGI [6] was greater than 100 µM. The TGI [7] was greater than 100 µM, the TGI [8] was greater than 100 µM and the TGI [9] was 50.3 µM. The TGI [10] was 79.8 µM, the TGI [11] was greater than 100 µM and the TGI [12] was greater than 100 µM. The TGI [13] was greater than 100 µM, the TGI [14] was greater than 100 µM and the TGI [15] was greater than 100 µM. For the same molecule, the TGI [16] was 88.6 µM, the TGI [17] was greater than 100 µM and the TGI [18] was greater than 100 µM. For the same molecule, the TGI [19] was greater than 100 µM, the TGI [20] was greater than 100 µM and the TGI [21] was 56.2 µM. The TGI [22] was greater than 100 µM, the TGI [24] was 54.7 µM and the TGI [25] was 58.3 µM. The TGI [26] was greater than 100 µM, the TGI [27] was greater than 100 µM and the TGI [54] was greater than 100 µM. It also gave a TGI [55] greater than 100 µM, a TGI [28] greater than 100 µM and a TGI [29] greater than 100 µM. The TGI [30] was 67.9 µM, the TGI [31] was greater than 100 µM and the TGI [32] was greater than 100 µM. The TGI [33] was 71.9 µM, the TGI [34] was greater than 100 µM and the TGI [35] was greater than 100 µM. It also gave a TGI [36] greater than 100 µM, a TGI [37] greater than 100 µM and a TGI [38] of 62.9 µM. It also gave a TGI [39] greater than 100 µM, a TGI [40] greater than 100 µM and a TGI [41] of 79.8 µM. It also gave a TGI [42] of 77.1 µM, a TGI [43] greater than 100 µM and a TGI [56] of 62.6 µM. The TGI [44] was greater than 100 µM, the TGI [45] was 59.8 µM and the TGI [46] was greater than 100 µM. For the same molecule, the TGI [47] was 42.7 µM, the TGI [48] was 82 µM and the TGI [49] was greater than 100 µM. The TGI [50] was greater than 100 µM, the TGI [51] was 91.9 µM and the TGI [52] was greater than 100 µM. For the same molecule, the TGI [53] was greater than 100 µM.

From PubChem BioAssay (NCI)
